Patent US20070224593A1 (priority 2005, published 2007)

Tests used:
[1] = target: non-amyloid or pre-amyloid PrP-d (Ovis aries, UniProt P23907); format: binding; conditions: such compounds were previously believed to associate only with classical amyloid PrP-d isoforms
PrP-d = PrP-d (Ovis aries, UniProt P23907); format: binding; conditions: same section of unfixed lymphoid tissue from scrapie positive sheep
[2] = target: scrapie-form prion protein (PrP-d) (Ovis aries, UniProt P23907); conditions: retropharyngeal lymph nodes of TSE+ sheep, ex vivo; 100 μM, 10 min, RT; λex approx. 370 nm, λem approx. 450 nm; TSE status confirmed by PrP-d immunohistochemistry
Sequence of scrapie-form prion protein (PrP-d) (P23907 25-233 limits assumed): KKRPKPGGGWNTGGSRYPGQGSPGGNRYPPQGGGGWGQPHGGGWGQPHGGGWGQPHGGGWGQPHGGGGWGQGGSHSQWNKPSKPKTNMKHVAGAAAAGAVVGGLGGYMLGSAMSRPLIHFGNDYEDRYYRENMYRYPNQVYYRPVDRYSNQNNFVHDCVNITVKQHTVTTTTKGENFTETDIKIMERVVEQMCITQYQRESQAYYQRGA

Sequence of non-amyloid or pre-amyloid PrP-d (P23907 25-233 limits assumed): as above
Sequence of PrP-d (P23907 25-233 limits assumed): as above

Compound	Binding to non-amyloid or pre-amyloid PrP-d [1]	Correlation of probe imaging with antibody binding (immunohistochemistry, AEC) (PrP-d)	PrP-d detection and visualization by probe fluorescence [2]
O=C(O)c1cc(C=Cc2ccc(C=Cc3ccc(O)c(C(=O)O)c3)cc2)ccc1O [X-34, 1,4-bis(3-carboxy-4-hydroxyphenylethenyl)-benzene]	Binding	colocalization of the X34 binding and the antibody binding	–
1,4-bis(4′-hydroxystyrl)-2-methoxybenzene [Me-X04]	Binding	–	detected and visualized
